In publication PMC11239830, “Synthetic macrolides overcoming MLSBK-resistant pathogens” (Cell Discovery, 2024):
In brackets after ≈: the same amount, converted by molar mass. Like-named read-outs stand apart in the source and are kept apart here.

Key:
[1] = tested on: S. pyogenes; test: MIC, broth microdilution; format: cell-based, Streptococcus pyogenes
In short: (§1)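 Incubation ran for 16–20 h at 37 °C after setup per Clinical and Laboratory Standards Institute microdilution procedure. Growth was then observed to assign the MIC. Assays were replicated at least three times.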

[2] = tested on: S. aureus; test: MIC, broth microdilution; format: cell-based, Staphylococcus aureus
In short: as §1

[3] = tested on: S. pneumoniae; test: MIC, broth microdilution; format: cell-based, Streptococcus pneumoniae
In short: as §1

[4] = tested on: M. catarrhalis; test: MIC, broth microdilution; format: cell-based, Moraxella catarrhalis; conditions: Moraxella catarrhalis; M. catarrhalis 13L332, Ery-S; read-out: MIC
In short: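 CLSI microdilution; 2-fold dilutions in CAMHB; inoculum 5 × 10^5 CFU/mL; 37 °C, 16–20 h; visual endpoint, no growth; n ≥ 3.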

[5] = tested on: WT S. aureus ribosomes; test: PURE in vitro translation inhibition assay; format: biochemical, Staphylococcus aureus; conditions: mean ± SD
Method: (§2) To validate the in vitro activity of our compounds, we employed an in vitro reconstituted E. coli Protein synthesis Using a Recombinant Elements (PURE) translation system, substituting E. coli ribosomes with the purified S. aureus ribosomes.
(§3) 5 μL of PURE reaction mix that translates a gene encoding the Nanoluc luciferase was set up in the presence or absence of tested compounds. Protein synthesis was initiated by incubating reactions at 37 °C for 60 min and stopped by placing on ice for 5 min. Luciferase activity was quantified using the Nano-Glo luciferase assay system and read on a GloMax 20/20 luminometer (Promega, USA). For each compound, the in vitro translation inhibition assay was performed in three biological triplicates over a range of concentrations from 0.001 μM to 1000 μM. A compound-free control was used to normalize luminescence measurements. The calculated luminescence percentages were plotted against compound concentrations on a semilog scale using GraphPad Prism.

[6] = tested on: 15B196 S. aureus ribosomes (A2058-methylated); test: PURE in vitro translation inhibition assay; format: biochemical, Staphylococcus aureus; conditions: mean ± SD
Method: as §2, §3

[7] = tested on: E. coli S30 extract protein synthesis; test: In vitro E. coli transcription/translation assay; format: biochemical; conditions: cell-free transcription/translation, materials from E. coli
Source text: The in vitro transcription/translation assay for E. coli utilized materials from the E. coli S30 extract system for circular DNA (L1020, Promega, USA). This kit contains all the necessary components for efficient transcription and translation of a user-provided DNA template. To test the inhibition of protein synthesis, the assay uses plasmid pBESTluc, which contains the firefly luciferase gene, as the DNA template. The intensity of luminescence resulting from luciferase expression corresponds to the efficiency of protein synthesis. The luminescence intensity was quantified in the presence or absence of the tested compounds. […] This experiment was repeated twice independently.

[8] = tested on: HEK293T cells; test: CCK-8 assay for cytotoxicity; format: cell-based, human; conditions: HEK293T, 5 μM, 48 h
Method: (§4) HepG2 cells (6 × 10^3) and HEK293T cells (4 × 10^3) were seeded into 96-well plates in 90 μL of DMEM medium containing 10% FBS per well. […] After overnight incubation, the test compound stock solution was diluted with DMEM medium containing 10% FBS to every target concentration, and 10 μL of each was added to each well. Three parallel experiments were set up for each compound. After incubation for 48 h, 10 μL of cell counting kit-8 (CCK-8) reagent was added to each well in sequence according to the manufacturer’s instructions. […] This experiment was independently repeated three times. The data were processed by GraphPad Prism.

[9] = CCK-8 assay for cytotoxicity; format: cell-based, human; conditions: human, HEK293T cells, HEK293T cell viability
Method: as §4

[10] = Staphylococcus aureus, MRSA, MRSA (13)
[11] = Staphylococcus aureus, i-MLSB S. aureus (10)

## CC[C@H]1OC(=O)[C@H](C)[C@@H](OC(=O)NCCCOCCC#Cc2ccc3c(=O)c(C(=O)O)cn(C)c3c2)[C@H](C)[C@@H](O[C@@H]2O[C@H](C)C[C@H](N(C)C)[C@H]2O)[C@](C)(OC)C[C@@H](C)C(=O)[C@H](C)[C@H]2NC(=O)O[C@@]21C [MCX-190]
[1]; S. pyogenes 01-968, Clinical, i-ermB
  MIC: 0.03 µg/mL (≈ 0.031 µM)
[1]; S. pyogenes 12-207, Clinical, mef
  MIC: 0.5 µg/mL (≈ 0.516 µM)
[1]; S. pyogenes 21C303, Clinical, c-ermB
  MIC: 1 µg/mL (≈ 1.03 µM)
[1]; S. pyogenes 21D184, Clinical, c-ermB
  MIC: 1 µg/mL (≈ 1.03 µM)
[1]; S. pyogenes 21D199, Clinical, c-ermB
  MIC: 1 µg/mL (≈ 1.03 µM)
[1]; S. pyogenes 21D200, Clinical, c-ermB
  MIC: 0.5 µg/mL (≈ 0.516 µM)
[1]; S. pyogenes 21K003, Clinical, mef
  MIC: 1 µg/mL (≈ 1.03 µM)
[1]; S. pyogenes 21M063, Clinical, c-ermB
  MIC: 0.5 µg/mL (≈ 0.516 µM)
[1]; S. pyogenes 21W186, Clinical, c-ermTR
  MIC: 2 µg/mL (≈ 2.06 µM)
[1]; Streptococcus pyogenes, S. pyogenes 12-206, c-ermTR, read-out: MIC
  MIC: 0.12 µg/mL (≈ 0.124 µM)
[2]; S. aureus 15B196, Clinical, MRSA, c-ermB
  MIC: 8 µg/mL (≈ 8.25 µM)
[2]; S. aureus 21B200, Clinical, MRSA, c-ermB
  MIC: 8 µg/mL (≈ 8.25 µM)
[2]; S. aureus 21B207, Clinical, MRSA, c-ermB
  MIC: 8 µg/mL (≈ 8.25 µM)
[2]; S. aureus 21B212, Clinical, MSSA, i-ermC
  MIC: 0.25 µg/mL (≈ 0.258 µM)
[2]; S. aureus 21C173, Clinical, MSSA, i-ermC
  MIC: 0.25 µg/mL (≈ 0.258 µM)
[2]; S. aureus 21C174, Clinical, MSSA, c-ermB
  MIC: 1 µg/mL (≈ 1.03 µM)
[2]; S. aureus 21C187, Clinical, MRSA, i-ermA
  MIC: 0.25 µg/mL (≈ 0.258 µM)
[2]; S. aureus 21D112, Clinical, MSSA, c-ermB
  MIC: 64 µg/mL (≈ 66 µM)
[2]; S. aureus 21D115, Clinical, MSSA, i-ermC
  MIC: 0.5 µg/mL (≈ 0.516 µM)
[2]; S. aureus 21F198, Clinical, MRSA, c-ermB
  MIC: 8 µg/mL (≈ 8.25 µM)
[2]; S. aureus 21F206, Clinical, MSSA, c-ermB
  MIC: 32 µg/mL (≈ 33 µM)
[2]; S. aureus 21F207, Clinical, MRSA, i-ermC
  MIC: 0.25 µg/mL (≈ 0.258 µM)
[2]; S. aureus 21K194, Clinical, MSSA, i-ermC
  MIC: 0.25 µg/mL (≈ 0.258 µM)
[2]; S. aureus 21N354, Clinical, MRSA, c-ermB
  MIC: 8 µg/mL (≈ 8.25 µM)
[2]; S. aureus 21P191, Clinical, MSSA, c-ermC
  MIC: 64 µg/mL (≈ 66 µM)
[2]; S. aureus 21P404, Clinical, MSSA, i-ermC
  MIC: 0.5 µg/mL (≈ 0.516 µM)
[2]; S. aureus 21P407, Clinical, MRSA, c-ermB
  MIC: 16 µg/mL (≈ 16.5 µM)
[2]; S. aureus 21Q253, Clinical, MRSA, c-ermB
  MIC: 4 µg/mL (≈ 4.13 µM)
[2]; S. aureus 21R216, Clinical, MSSA, c-ermC
  MIC: 64 µg/mL (≈ 66 µM)
[2]; S. aureus 21T141, Clinical, MRSA, c-ermB
  MIC: 4 µg/mL (≈ 4.13 µM)
[2]; S. aureus 21X388, Clinical, i-ermA (MRSA in Table S9, MSSA in Fig. 2a)
  MIC: 0.25 µg/mL (≈ 0.258 µM)
[2]; S. aureus 21Y223, Clinical, MRSA, i-ermC
  MIC: 0.5 µg/mL (≈ 0.516 µM)
[2]; S. aureus ATCC29213
  MIC: 0.25 µg/mL (≈ 0.258 µM)
[2]; S. aureus PU32, Clinical, MRSA, i-ermA
  MIC: 0.25 µg/mL (≈ 0.258 µM)
[2]; Staphylococcus aureus, All S. aureus (24)
  MIC50: 1 µg/mL (≈ 1.03 µM)
[2]; [10]
  MIC50: 4 µg/mL (≈ 4.13 µM)
  MIC90: 8 µg/mL (≈ 8.25 µM)
[2]; Staphylococcus aureus, MSSA, MSSA (10)
  MIC50: 0.5 µg/mL (≈ 0.516 µM)
[2]; Staphylococcus aureus, S. aureus 15B196, c-ermB, read-out: MIC
  MIC: 8 µg/mL (≈ 8.25 µM)
[2]; Staphylococcus aureus, S. aureus PU32, i-ermA, read-out: MIC
  MIC: 0.5 µg/mL (≈ 0.516 µM)
[2]; Staphylococcus aureus, c-MLSB (constitutive) S. aureus (13)
  MIC50: 8 µg/mL (≈ 8.25 µM)
[2]; Staphylococcus aureus, c-MLSB S. aureus (13)
  MIC90: 64 µg/mL (≈ 66 µM)
[2]; [11]
  MIC50: 0.25 µg/mL (≈ 0.258 µM)
  MIC90: 0.5 µg/mL (≈ 0.516 µM)
[2]; Staphylococcus aureus, MSSA (10)
  MIC90: 64 µg/mL (≈ 66 µM)
[3]; S. pneumoniae 07P390, c-ermB, listed as 95g
  MIC: 0.06 µg/mL (≈ 0.0619 µM)
[3]; S. pneumoniae 21C315, Clinical, c-ermB
  MIC: 0.12 µg/mL (≈ 0.124 µM)
[3]; S. pneumoniae 21D016, Clinical, c-ermB, mef
  MIC: 0.5 µg/mL (≈ 0.516 µM)
[3]; S. pneumoniae 21D020, Clinical, c-ermB, mef
  MIC: 0.25 µg/mL (≈ 0.258 µM)
[3]; S. pneumoniae 21M277, Clinical, c-ermB
  MIC: 0.5 µg/mL (≈ 0.516 µM)
[3]; S. pneumoniae 21Q352, Clinical, i-MLSB
  MIC: 0.25 µg/mL (≈ 0.258 µM)
[3]; S. pneumoniae 21Q353, Clinical, i-MLSB
  MIC: 0.25 µg/mL (≈ 0.258 µM)
[3]; S. pneumoniae 21W257, Clinical, c-ermB, mef
  MIC: 0.5 µg/mL (≈ 0.516 µM)
[3]; S. pneumoniae 21X435, Clinical
  MIC: 0.016 µg/mL (≈ 0.0165 µM)
[3]; S. pneumoniae ATCC49619
  MIC: 0.016 µg/mL (≈ 0.0165 µM)
[3]; S. pneumoniae ATCC49619, Ery-S, listed as 95g
  MIC: 0.016 µg/mL (≈ 0.0165 µM)
[3]; Streptococcus pneumoniae, ATCC49619, S. pneumoniae ATCC49619, Ery-S, read-out: MIC
  MIC: 0.03 µg/mL (≈ 0.031 µM)
[3]; Streptococcus pneumoniae, S. pneumoniae 05O173, c-ermB, mef, read-out: MIC
  MIC: 2 µg/mL (≈ 2.06 µM)
[3]; Streptococcus pneumoniae, S. pneumoniae 07P390, c-ermB, read-out: MIC
  MIC: 0.12 µg/mL (≈ 0.124 µM)
[3]; Streptococcus pneumoniae, S. pneumoniae PU09, mef, read-out: MIC
  MIC: 0.06 µg/mL (≈ 0.0619 µM)
[4]
  MIC: 0.25 µg/mL (≈ 0.258 µM)
[5]
  IC50: 380 ± 100 nM
[6]
  IC50: 460 ± 230 nM
[7]
  IC50: 670 nM
[8]
  cytotoxicity at 5 μM: significantly reduced cytotoxicity compared to TcmX
[9]
  CC50 at 48 h: > 100000 nM
